According to patent US20100099676A1 (SHIONOGI & CO., LTD., priority 2006, published 2010):

Columns and labels:
Test in all cases: Enzyme inhibiting activity of MMPs, fluorogenic peptide substrate
Type in all cases: biochemical
MMP-2 = molecular target: T1, MMP-2 (Homo sapiens, UniProt P08253); details: substrate MOCAc-Pro-Leu-Gly-Leu-A2Pr(DNP)-Ala-Arg-NH2, fluorescent intensity
T1 construct: purchased Calbiochem (EMD/MERCK Biosciences)
T1 sequence (P08253 110-660): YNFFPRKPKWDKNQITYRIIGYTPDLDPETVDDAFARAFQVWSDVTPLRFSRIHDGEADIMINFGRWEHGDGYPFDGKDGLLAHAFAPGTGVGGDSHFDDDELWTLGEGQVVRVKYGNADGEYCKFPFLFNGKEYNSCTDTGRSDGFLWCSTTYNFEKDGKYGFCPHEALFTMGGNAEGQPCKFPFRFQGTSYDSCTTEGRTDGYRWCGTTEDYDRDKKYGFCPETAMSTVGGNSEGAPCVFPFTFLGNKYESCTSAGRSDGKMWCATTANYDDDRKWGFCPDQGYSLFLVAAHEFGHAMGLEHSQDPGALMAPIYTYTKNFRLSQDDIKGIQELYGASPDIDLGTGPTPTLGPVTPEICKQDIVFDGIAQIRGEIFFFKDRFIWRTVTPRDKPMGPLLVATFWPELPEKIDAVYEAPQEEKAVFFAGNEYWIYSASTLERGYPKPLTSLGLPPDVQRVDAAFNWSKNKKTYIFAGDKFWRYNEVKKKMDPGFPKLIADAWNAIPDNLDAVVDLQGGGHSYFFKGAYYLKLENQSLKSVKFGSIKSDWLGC
Experimental: (§1) Various human MMPs (MMP-2, MMP-9 and MMP-13) were purchased from Calbiochem (EMD/MERCK Biosciences).
(§2) The enzyme activity of MMPs was measured according to the method described in C. Graham Knight, Frances Willenbrock and Gillian Murphy: A novel coumarin-labelled peptide for sensitive continuous assays of the matrix metalloproteinases: FEBS LETT., 296, (1992), 263-266. As a substrate, MOCAc-Pro-Leu-Gly-Leu-A2Pr(DNP)- Ala-Arg-NH2 (Peptide Institute, Inc. Osaka, Japan) was used, and the following four assays are performed per compound (inhibitor) for measuring the inhibiting activity.
(§3) (A) Substrate (synthetic substrate), enzyme (MMPs), inhibitor
(§4) (B) Substrate (synthetic substrate), inhibitor
(§5) (C) Substrate (synthetic substrate), enzyme (MMPs)
(§6) (D) Substrate (synthetic substrate)
(§7) In each assay, the fluorescent intensity was measured, and inhibition (%) was calculated by the following equation.
(§8) Inhibition (%)=[I−(A−B)/(C−D)]×100
(§9) IC50 indicates a concentration at which inhibition (%) is 50%.

MMP-9 = molecular target: T2, MMP-9 (Homo sapiens, UniProt P14780); details: substrate MOCAc-Pro-Leu-Gly-Leu-A2Pr(DNP)-Ala-Arg-NH2, fluorescent intensity
T2 construct: purchased Calbiochem (EMD/MERCK Biosciences)
T2 sequence (P14780 94-707): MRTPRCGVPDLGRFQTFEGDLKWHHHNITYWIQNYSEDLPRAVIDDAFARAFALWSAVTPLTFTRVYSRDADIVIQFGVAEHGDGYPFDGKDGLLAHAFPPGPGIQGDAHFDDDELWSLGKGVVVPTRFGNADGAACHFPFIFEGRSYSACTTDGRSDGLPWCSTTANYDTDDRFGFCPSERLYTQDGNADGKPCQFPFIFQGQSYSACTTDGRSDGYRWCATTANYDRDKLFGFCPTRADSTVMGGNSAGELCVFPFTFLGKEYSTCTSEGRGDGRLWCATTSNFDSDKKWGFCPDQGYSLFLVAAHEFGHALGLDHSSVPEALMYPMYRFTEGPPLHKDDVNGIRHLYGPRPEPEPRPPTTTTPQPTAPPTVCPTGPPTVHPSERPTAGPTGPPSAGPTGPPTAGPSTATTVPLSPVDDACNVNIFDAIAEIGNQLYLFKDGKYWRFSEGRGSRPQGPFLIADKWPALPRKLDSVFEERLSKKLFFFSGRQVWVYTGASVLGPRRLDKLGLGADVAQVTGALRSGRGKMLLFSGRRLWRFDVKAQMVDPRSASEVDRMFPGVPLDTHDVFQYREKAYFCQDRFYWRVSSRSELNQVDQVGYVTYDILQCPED
Experimental: as §1, §2, §3, §4, §5, §6, §7, §8, §9

MMP-13 = molecular target: T3, MMP-13 (Homo sapiens, UniProt P45452); details: APMA-activated proenzyme; substrate MOCAc-Pro-Leu-Gly-Leu-A2Pr(DNP)-Ala-Arg-NH2, fluorescent intensity; read-out: IC50 MMP-13
T3 construct: purchased Calbiochem (EMD/MERCK Biosciences)
Experimental: as §1
Since the purchased MMP-13 was Proenzyme, the activated one was used, which was incubated at 37° C. for 2 hours after the successive addition of an assay buffer (containing 50 mM Tris-HCl (pH7.6), 0.3 M NaCl, 10 mM CaCl2, 0.005% Brij35) and APMA (final concentration 1 mM) to the enzyme solution.
as §2, §3, §4, §5, §6, §7, §8, §9

Compound	IC50 (MMP-2) [µM]	IC50 (MMP-9) [µM]	IC50 (MMP-13) [µM]
CC(C)Oc1ccc(C#Cc2ccc(N3CCN(S(=O)(=O)N[C@H](C)C(=O)O)CC3)cc2)cc1C(=O)NCc1ccccc1 [III-116, (R)-2-{4-[4-(3-benzylcarbamoyl-4-isopropoxyphenylethynyl)-phenyl]-piperazine-1-sulfonylamino}-proponic acid]	> 10	> 10	0.023
COCCOc1ccc(C#Cc2ccc(N3CCN(S(=O)(=O)N[C@@H](C(=O)O)C(C)C)CC3)cc2)cc1-c1ncc(CC(=O)NCc2ccccc2)o1 [Compound V-24, (R)-2-(4-{4-[3-[5-(benzylearbamoylmethyl)-oxazol-2-yl]-4-(2-methoxyethoxy)-phenylethynyl]-phenyl}-piperazine-1-sulfonylamino)-3-methylbutanoic acid]	> 10	> 10	0.023
CC(C)CCOc1ccc(C#Cc2ccc(N3CCN(S(=O)(=O)N[C@@H](C(=O)O)C(C)C)CC3)cc2)cc1C(=O)NCC#N [III-99, (R)-2-(4-{4-[3-(cyanomethylcarbamoyl)-4-(3-methylbutoxy)phenylethynyl]-phenyl}-piperazine-1-sulfonylamino)-3-methylbutanoic acid]	1 to 10	> 10	0.025
(S)-2-(4-{4-[(E)-2-(acetylnaphthalen-2-yl)-vinyl]-phenyl}-piperazine-1-sulfonylamino)-pentanoic acid [III-25]	> 10	> 10	0.018
C[C@@H](NS(=O)(=O)N1CCN(c2ccc(C#Cc3ccc4c(c3)c(-c3ncco3)cn4C)cc2)CC1)C(=O)O [III-46, (R)-2-{4-[4-(1-methyl-3-oxazol-2-yl-1H-indol-5-ylethynyl)-phenyl]-piperazine-1-sulfonylamino}-proponic acid]	> 10	> 10	0.018
CC(=O)c1cccc2ccc(C#Cc3ccc(N4CCN(S(=O)(=O)N[C@@H](CO)C(=O)O)CC4)cc3)cc12 [III-24, (S)-2-{4-[4-(8-acetylnaphthalen-2-ylethynyl)-phenyl]-piperazine-1-sulfonylamino}-3-hydroxyproponic acid]	> 10	> 10	0.026
CCC[C@H](NS(=O)(=O)N1CCN(c2ccc(C#Cc3ccnc(C(=O)NCc4ccc(Cl)cc4)c3)cc2)CC1)C(=O)O [III-60, (S)-2-(4-{4-[2-(4-chrolobenzylcarbamoyl)-pyridin-4-ylethynyl]-phenyl}-piperazine-1-sulfonylamino)-pentanoic acid]	> 10	> 10	0.006
CC(C)Cc1coc(-c2cc(C#Cc3ccc(N4CCN(S(=O)(=O)N[C@@H](C(=O)O)C(C)C)CC4)cc3)ccn2)n1 [Compound V-8, (R)-2-(4-{4-[2-(4-isobutyloxazol-2-yl)-pyridin-4-ylethynyl]-phenyl}-piperazine-1-sulfonylamino)-3-methylbutanoic acid]	1 to 10	> 10	0.007
C[C@@H](NS(=O)(=O)N1CCN(c2ccc(C#Cc3cccc(C(=O)NCc4ccccc4)c3)cc2)CC1)C(=O)O [Compound I-1, (1)-2-{4-[4-(3-benzylcarbamoylphenylethynyl)-phenyl]-piperazine-1-sulfonylamino}-proponic acid]	0.1 to 1	> 10	0.0021
CC(C)[C@@H](NS(=O)(=O)N1CCN(c2ccc(C#Cc3ccnc(C(=O)NCc4ccc(S(N)(=O)=O)cc4)c3)cc2)CC1)C(=O)O [III-201, (R)-3-methyl-2-(4-{4-[2-(4-sulfamoylbenzylcarbamoyl)-pyridin-4-ylethynyl]-phenyl}-piperazine-1-sulfonylamino)-butanoic acid]	0.1 to 1	> 10	0.001
CC(C)[C@@H](NS(=O)(=O)N1CCN(c2ccc(C#Cc3ccnc(C(=O)NCc4ccc(CNC(=O)OC(C)(C)C)cc4)c3)cc2)CC1)C(=O)O [III-223, (R)-2-[4-(4-{2-[4-(tert-butoxycarbonylaminomethyl)-benzylcarbamoyl]-pyridin-4-ylethynyl}-phenyl)-piperazine-1-sulfonylamino]-3-methylbutanoic acid]	1 to 10	> 10	0.017
COc1ccc(Cn2ccc3ccc(C#Cc4ccc(N5CCN(S(=O)(=O)N[C@H](C(=O)O)C(C)C)CC5)cc4)cc3c2=O)cc1 [Compound V-37, (S)-2-(4-{4-[2-(4-methoxybenzyl)-1-oxo-1,2-dihydroisoquinolin-7-ylethynyl]-phenyl}-piperazine-1-sulfonylamino)-3-methylbutanoic acid]	> 10	> 10	0.02
CC(C)[C@@H](NS(=O)(=O)N1CCN(c2ccc(C#Cc3ccc(OCCOC(C)(C)C)c(C(=O)NCC#N)c3)cc2)CC1)C(=O)O [III-138, (R)-2-(4-{4-[4-(2-tert-butoxyethoxy)-3-(cyanomethylcarbamoyl)-phenylethynyl]-phenyl}-piperazine-1-sulfonylamino)-3-methylbutanoic acid]	1 to 10	> 10	0.018
CC(C)COc1ccc(C#Cc2ccc(N3CCN(S(=O)(=O)N[C@H](C)C(=O)O)CC3)cc2)cc1C(=O)NCc1ccccc1 [III-121, (R)-2-{4-[4-(3-benzylcarbamoyl-4-isobutoxyphenylethynyl)-phenyl]-piperazine-1-sulfonylamino}-proponic acid]	> 10	> 10	0.025
CC(C)[C@@H](NS(=O)(=O)N1CCN(c2ccc(C#Cc3ccnc(C(=O)NCc4cccc(F)c4)c3)cc2)CC1)C(=O)O [III-181, (R)-2-(4-{4-[2-(3-fluorobenzylcarbamoyl)-pyridin-4-ylethynyl]-phenyl}-piperazine-1-sulfonylamino)-3-methylbutanoic acid]	1 to 10	> 10	0.006
Cc1cccc(CNC(=O)c2cc(C#Cc3ccc(N4CCN(S(=O)(=O)N[C@@H](C(=O)O)C(C)C)CC4)cc3)ccn2)c1 [III-186, (R)-3-methyl-2-(4-{4-[2-(3-methylbenzylcarbamoyl)-pyridin-4-ylethynyl]-phenyl}-piperazine-1-sulfonylamino)-butanoic acid]	1 to 10	> 10	0.012
C[C@@H](NS(=O)(=O)N1CCN(c2ccc(C#Cc3ccc4c(c3)c(=O)n(Cc3ccc(F)cc3)c(=O)n4C)cc2)CC1)C(=O)O [Compound V-71, (R)-2-(4-{4-[3-(4-fluorobenzyl)-1-methyl-2,4-dioxo-1,2,3,4-tetrahydroquinazolin-6-ylethynyl]-phenyl}-piperazine-1-sulfonylamino)-proponic acid]	> 10	> 10	0.008
CC(C)Oc1ccc(C#Cc2ccc(N3CCN(S(=O)(=O)N[C@H](C)C(=O)O)CC3)cc2)cc1C(=O)NCc1cccc(Cl)c1 [III-118, (R)-2-(4-{4-[3-(3-chrolobenzylcarbamoyl)-4-isopropoxyphenylethynyl]-phenyl}-piperazine-1-sulfonylamino)-proponic acid]	> 10	> 10	0.028
CC(C)[C@@H](NS(=O)(=O)N1CCN(c2ccc(C#Cc3ccnc(C(=O)NCc4ccccc4)c3)cc2)CC1)C(=O)O [III-177, (R)-2-{4-[4-(2-benzylcarbamoylpyridin-4-ylethynyl)-phenyl]-piperazine-1-sulfonylamino}-3-methylbutanoic acid]	1 to 10	> 10	0.009
CC(=O)c1nccc2ccc(C#Cc3ccc(N4CCN(S(=O)(=O)N[C@@H](C(=O)O)C(C)C)CC4)cc3)cc12 [Compound V-1, (R)-2-{4-[4-(1-acetylisoquinolin-7-ylethynyl)-phenyl]-piperazine-1-sulfonylamino}-3-methylbutanoic acid]	1 to 10	> 10	0.046
